Laboratory results taken from publication PMC9182347, “α-Glucosidase, α-Amylase and Antioxidant Evaluations of Isolated Bioactives from Wild Strawberry” (Molecules, 2022).
Several values for one entry are separate records, joined by “and”; a condition that tells them apart may be missing. Equal values may be shown once.

Key:
[1] = DPPH free radicals scavenging assay; conditions: for DPPH Percent Inhibition: mean ± SEM, n = 3
Protocol: The antioxidant activity was carried out for F. indica extracts, semi-purified ethyl acetate fractions and isolated compounds using DPPH free radicals. DPPH solution was prepared (24 mg/100 mL of methanol). Stock solutions (1 mg/mL) of F. indica extracts and isolated compounds were prepared in methanol and then diluted to 1000, 500, 250, 125, 62.5 μg/mL. Sample and DPPH solutions were mixed in a ratio of 1:1 and were incubated at 23 °C for 30 min. Finally, absorbance was measured at 517 nm using UV spectrophotometer (Thermo electron corporation, Waltham, MA, USA). Ascorbic acid was used as positive control. Percent radical scavenging activity was measured using the reported equations [61].
(§1) The half inhibitory concentration (IC50) was calculated using Microsoft Excel program as per our previously reported method.

α-amylase = experiment: In vitro α-amylase inhibition; assay type: biochemical; conditions: for α-Amylase Percent Inhibition: mean ± SEM, n = 3
Protocol: The amylase solution was prepared in phosphate buffer. The solutions of the F. indica and isolated compounds (62.50 to 1000 µg/mL) were added to the amylase solution and allowed to react. After reaction completion, starch solution was added and incubated as per the standard method. Afterwards, a solution of dinitro-salicylic acid was added to both test and control groups. The final solutions were heated for 3 min in boiling water and the absorbances were measured at […]. The experiments were performed in triplicates and percent inhibitions were calculated.
as §1

α-glucosidase = α-glucosidase (Saccharomyces cerevisiae, UniProt P53341); assay type: biochemical
Protocol: The α-glucosidase solution (120 μL) of 0.50 U/mL in 0.10 M phosphate buffer (pH 6.90) was prepared and p-nitrophenyl-α-D-glucopyranoside (5 mM) was added as substrate solution. Different concentrations ranging from 62.50 µg/mL to 1000 µg/mL of the crude extracts, semi-purified fractions and isolated compounds of F. indica were prepared accordingly. The plant’s samples (extracts, semi-purified and purified compounds) were mixed with the solutions of enzyme as per the experiment and were incubated at 37 °C.
After initial incubation for 15 min, 20 μL p-nitrophenyl-α-D-glucopyranoside solution was mixed and was again incubated in the same way. Finally, 80 μL solution of sod. carbonate (0.20 M) was added to finish up the reaction. The solution containing all the substrates except α-glucosidase served as a blank. The absorbances of experiments were measured at 405 nm. The experiments were repeated 3 times and the calculations were made as per the standard protocols.
as §1

Chain of α-glucosidase (P53341 whole entry): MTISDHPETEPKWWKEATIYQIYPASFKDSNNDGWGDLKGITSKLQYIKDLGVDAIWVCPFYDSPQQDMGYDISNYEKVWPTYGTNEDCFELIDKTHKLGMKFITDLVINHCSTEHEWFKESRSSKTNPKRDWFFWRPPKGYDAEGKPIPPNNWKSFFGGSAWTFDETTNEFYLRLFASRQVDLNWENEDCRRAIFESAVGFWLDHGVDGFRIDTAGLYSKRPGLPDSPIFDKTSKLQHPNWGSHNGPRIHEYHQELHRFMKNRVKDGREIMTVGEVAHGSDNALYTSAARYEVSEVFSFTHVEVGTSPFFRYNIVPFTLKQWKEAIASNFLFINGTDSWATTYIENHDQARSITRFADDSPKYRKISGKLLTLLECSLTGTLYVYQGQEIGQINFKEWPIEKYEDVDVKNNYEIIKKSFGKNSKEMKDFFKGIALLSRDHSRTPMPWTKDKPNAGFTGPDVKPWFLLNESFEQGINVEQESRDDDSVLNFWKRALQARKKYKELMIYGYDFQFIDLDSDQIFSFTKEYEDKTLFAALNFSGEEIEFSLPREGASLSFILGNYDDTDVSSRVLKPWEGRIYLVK

O=C1O[C@H]([C@@H](O)CO)C(O)=C1O [Ascorbic acid]
DPPH IC50 [1]: 4.98 µg/mL
DPPH Percent Inhibition ([1]; 62.5 μg/mL): 75.45 ± 0.90%
DPPH Percent Inhibition ([1]; 125 μg/mL): 77.61 ± 0.43%
DPPH Percent Inhibition ([1]; 250 μg/mL): 82.40 ± 0.20%
DPPH Percent Inhibition ([1]; 500 μg/mL): 87.08 ± 0.47%
DPPH Percent Inhibition ([1]; 1000 μg/mL): 91.90 ± 0.96%

COc1c(O)c(C)c(Cl)c(OC)c1Cl [Compound 1, 2,4-dichloro-6-hydroxy-3,5-dimethoxytoluene]
DPPH IC50 [1]: 7.62 µg/mL
α-Amylase IC50 (α-amylase): 15.03 µg/mL and 17.65 µg/mL

C[C@H]1O[C@H](O[C@H]2[C@H](O)[C@@H](O)[C@@H](O[C@H]3[C@H](O)[C@@H](O)C(O)O[C@@H]3CO)O[C@@H]2CO)[C@H](O)[C@@H](O)[C@@H]1N[C@H]1C=C(CO)[C@@H](O)[C@H](O)[C@H]1O (stereo partly shown) [Acarbose, acarbose]
α-Glucosidase Percent Inhibition (α-glucosidase): 96.00 ± 0.30% and 90.61 ± 0.43% and 84.03 ± 0.86% and 77.58 ± 0.77% and 71.48 ± 0.74%
α-Amylase Percent Inhibition (α-amylase; 62.5 μg/mL): 63.26 ± 0.93%
α-Amylase Percent Inhibition (α-amylase; 125 μg/mL): 67.05 ± 0.49%
α-Amylase Percent Inhibition (α-amylase; 250 μg/mL): 71.56 ± 0.49%
α-Amylase Percent Inhibition (α-amylase; 500 μg/mL): 74.03 ± 0.64%
α-Amylase Percent Inhibition (α-amylase; 1000 μg/mL): 82.43 ± 0.52%

CC(C)=CC(=O)CC(C)c1ccc(C)cc1 (stereo not shown) [Compound 2, 2-methyl-6-(4-methylphenyl)-2-hepten-4-one]
DPPH IC50 [1]: 14.30 µg/mL
α-Amylase IC50 (α-amylase): 16.56 µg/mL
